The results in this text go back to ChEMBL document CHEMBL1121855, “Potential salicylamide antiplaque agents: in vitro antibacterial activity against Actinomyces viscosus” (J Med Chem, 1981).

SMILES strings stand for the structures. In brackets after ≈: the same amount, converted by molar mass.

The test system of series [1] is Actinomyces naeslundii. As to the kind of experiment: In vitro antibacterial activity against Actinomycetes naeslundii 12104. In kind it is functional.
In series [2] the test system is Actinomyces israelii. The experiment in a line: In vitro antibacterial activity against Actinomycetes israelii 28360. In kind it is functional.
Series [3] relates to Actinomyces naeslundii. The experiment in a line: In vitro antibacterial activity against Actinomycetes naeslundii 8115. In kind it is functional.
The subject of series [4] is Actinomyces viscosus. The experiment in a line: In vitro antibacterial activity against Actinomyces viscosus M-100-2000. It is filed as functional.
Series [5] deals with Actinomyces viscosus. The experiment in a line: In vitro antibacterial activity against Actinomycetes viscosus T14V. It is filed as functional.
Series [6] has as its system Actinomyces israelii. The experiment in a line: In vitro antibacterial activity against Actinomycetes israelii 12836. It is filed as functional.
Series [7] relates to Actinomyces israelii. As to the kind of experiment: In vitro antibacterial activity against Actinomycetes israelii 10048. In kind it is functional.
The nature of series [8]: Observed inhibitory activity against various Actinomycetes strains. The following applies: actinomycetaceae.
A short description of series [9]: Partition coefficient is determined in octanol/buffer solution. In kind it is physicochemical. The settings on record: octanol/buffer; read-out: logP.
Series [10] is described as follows: Dissociation constant is the negative logarithm of the equilibrium coefficient of the neutral and charged forms of the compound. It is filed as physicochemical.
The nature of series [11]: Distribution coefficient between octanol and aqueous phase at pH7.2. It is filed as physicochemical. The following applies: pH 7.2.

For the molecule `CCCCCCCCCC(=O)c1ccc(O)c(C(=O)Nc2nc3ccccc3s2)c1`, the MIC (in general, the least concentration at which growth counts as inhibited) was greater than 10 µg/mL in [1]; greater than 10 µg/mL in [2]; greater than 10 µg/mL in series [3]; 0.5 µg/mL (≈ 1.18 µM) in series [4]; 10 µg/mL (≈ 23.6 µM) in [5]; greater than 10 µg/mL in series [6]. For the same molecule, the MIC in series [7] turned out to be 5 µg/mL (≈ 11.8 µM).

With `COc1ccc(NC(=O)c2cc(C)ccc2O)cc1`, the MIC in series [4] was greater than 40 µg/mL.

As for `CCCCCCCCCC(=O)c1ccc(O)c(C(=O)NCc2ccc(Cl)c(Cl)c2)c1`, 0.5 µg/mL (≈ 1.11 µM) was the least that counted as inhibitory in series [4] (MIC).

Molecule `O=C(NCc1ccc(Cl)cc1)c1cc(Br)cc(Br)c1O` showed an MIC in [4] of 4 µg/mL (≈ 9.54 µM).

In series [4], `CCCCCCCCCCCC(=O)c1ccc(O)c(C(=O)Nc2ccc([N+](=O)[O-])cc2)c1` showed an MIC of 0.05 µg/mL (≈ 0.113 µM).

`CCCCCCCCc1ccc(O)c(C(=O)Nc2ccc(Br)cc2)c1` returned a minimal inhibitory concentration (MIC) in series [4] of 0.2 µg/mL (≈ 0.495 µM). This MIC lies about 4-fold higher than the previous one.

`Cc1ccc(O)c(C(=O)Nc2ccc([N+](=O)[O-])cc2)c1` returned an MIC in [4] of 5 µg/mL (≈ 18.4 µM). This MIC lies about 25-fold higher than the previous one.

In series [4], `O=C(Nc1nc2cc(Cl)ccc2o1)c1cc(Br)cc(Br)c1O` had a minimum inhibitory concentration (MIC) greater than 35 µg/mL.

As to `CCCCCCc1ccc(O)c(C(=O)NCc2ccc(C)c([N+](=O)[O-])c2)c1`, in series [4], the minimal inhibitory concentration (MIC) was greater than 20 µg/mL.

Turning to `CCCCCCCC(=O)c1ccc(O)c(C(=O)Nc2ccc([N+](=O)[O-])cc2)c1`, 0.1 µg/mL (≈ 0.26 µM) was the least that counted as inhibitory in series [4] (MIC).

For `CCCCCCCCCC(=O)c1ccc(O)c(C(=O)Nc2ccc(Br)cc2)c1`, in series [8], the “Log 1/MIC” value came out at 6.87. Further, the logP – broadly, a log measure of how a compound divides between an organic and an aqueous phase – in [9] turned out to be 8.02. Further, the pKa (commonly the negative logarithm of the acid dissociation constant) in series [10] stood at 6.1. Further, the MIC in [4] turned out to be 0.06 µg/mL (≈ 0.134 µM). For the same molecule, the log distribution coefficient (logD) (commonly lipophilicity at a set pH, counting ionised and neutral species) in series [11] was determined as 6.88.

`O=C(Nc1nc2cc(Cl)ccc2[nH]1)c1cc(Br)cc(Br)c1O` showed an MIC in series [4] of 4 µg/mL (≈ 8.98 µM).

In series [4], `O=C(Nc1nc2c(Cl)cccc2s1)c1cc(Br)cc(Br)c1O` came in with an MIC of 1.7 µg/mL (≈ 3.68 µM).

With `O=C(Nc1ccc(Br)cc1)c1cc([N+](=O)[O-])ccc1O`, the “Log 1/MIC” value in series [8] amounted to 5.05. In addition, in [9], the logP is 4.58. Moreover, in series [10], the pKa was 5.8. Besides, the MIC in series [4] was 3 µg/mL (≈ 8.9 µM). In addition, in series [11], the logD came to 3.16.

In series [4], `CCCCc1ccc(O)c(C(=O)Nc2cccc(C(F)(F)F)c2)c1` displayed an MIC of 0.5 µg/mL (≈ 1.48 µM).

In the case of `O=C(Nc1ccc(Br)cc1)c1ccccc1O`, the “Log 1/MIC” value in [8] is on record as 4.47. Also, in [9], the logP is 4.13. For the same molecule, the pKa in series [10] turned out to be 7.1. In series [4], the MIC worked out at 10 µg/mL (≈ 34.2 µM). For the same molecule, in series [11], the log distribution coefficient (logD) turned out to be 3.78.

Take `CCC(=O)c1ccc(O)c(C(=O)Nc2ccc(Br)cc2)c1`: the “Log 1/MIC” value in [8] came out at 4.43. Further, the log partition coefficient (logP) in series [9] was 4.52. For the same molecule, in series [10], the pKa was found to be 6.1. In addition, 13 µg/mL (≈ 37.3 µM) was the least that counted as inhibitory in [4] (MIC). The molecule also had a log distribution coefficient (logD) in series [11] of 3.38.

`Cc1nnc(NC(=O)c2cc(Br)cc(Br)c2O)s1`: in series [4], the MIC was 100 µg/mL (≈ 254 µM).

Turning to `CCCCCCc1ccc(O)c(C(=O)NCc2ccc([N+](=O)[O-])cc2)c1`, the minimum inhibitory concentration (MIC) in series [1] was 0.05 µg/mL (≈ 0.14 µM); in series [2], 0.1 µg/mL (≈ 0.281 µM); in [3], 0.05 µg/mL (≈ 0.14 µM); in [4], 0.05 µg/mL (≈ 0.14 µM); in series [5] it was 0.05 µg/mL (≈ 0.14 µM); in series [6] it was 0.1 µg/mL (≈ 0.281 µM). The minimum inhibitory concentration (MIC) in series [7] came to 0.5 µg/mL (≈ 1.4 µM).

On to `O=C(NCCCCCCNC(=O)c1cc(Br)ccc1O)c1cc(Br)ccc1O`, for which, in series [4], the minimal inhibitory concentration (MIC) was greater than 20 µg/mL.

`CCCCCCCC(=O)c1ccc(O)c(C(=O)Nc2cccc(C(F)(F)F)c2)c1`: in [4], the MIC worked out at 0.5 µg/mL (≈ 1.23 µM).

As to `CCCCCCc1ccc(O)c(C(=O)NCc2ccc(Cl)cc2)c1`, the minimum inhibitory concentration (MIC) in [4] came out at 10 µg/mL (≈ 28.9 µM).

For the molecule `CCCCCCCCCCCC(=O)c1ccc(O)c(C(=O)Nc2cccc(C(F)(F)F)c2)c1`, the MIC stood at 0.1 µg/mL (≈ 0.216 µM) in series [1]; 0.1 µg/mL (≈ 0.216 µM) in [2]; 0.05 µg/mL (≈ 0.108 µM) in [3]; 0.5 µg/mL (≈ 1.08 µM) in series [4]; 0.1 µg/mL (≈ 0.216 µM) in series [5]; 0.5 µg/mL (≈ 1.08 µM) in [6]. The molecule further came in with an MIC in series [7] of 0.1 µg/mL (≈ 0.216 µM).

In the case of `CCCCCCCCCCCC(=O)c1ccc(O)c(C(=O)NCc2ccc(Cl)c(Cl)c2)c1`, the minimum inhibitory concentration (MIC) in series [4] was determined as 5 µg/mL (≈ 10.5 µM).

On to `CCCCCC(=O)c1ccc(O)c(C(=O)Nc2ccc(Br)cc2)c1`, for which, in series [8], the “Log 1/MIC” value came out at 5.6. The logP in series [9] worked out at 6.02. In series [10], the pKa amounted to 6.1. Besides, 1 µg/mL (≈ 2.56 µM) was the least that counted as inhibitory in series [4] (MIC). For the same molecule, the pH-dependent lipophilicity (logD) in series [11] came to 4.88.

`Cc1cc(C(=O)Nc2ccc(Br)cc2)c(O)c([N+](=O)[O-])c1`: the “Log 1/MIC” value in series [8] was determined as 3.94. Besides, the logP in [9] was found to be 5.06. This molecule gave a pKa in series [10] of 5.6. Inhibition of growth in series [4] (MIC) required 45 µg/mL (≈ 128 µM). In series [11], the log distribution coefficient (logD) worked out at 3.46.

In turn, `CCCCCCCCCCc1ccc(O)c(C(=O)Nc2ccc(Br)cc2)c1` came in with a minimum inhibitory concentration (MIC) in series [4] of 3.25 µg/mL (≈ 7.52 µM).
